From patent publication US9770026B2, “Substituted pyrimidine compound and uses thereof” (Shenyang Sinochem Agrochemicals R&D Co., Ltd., priority 2012, dated 2017)

Key:
cucumber gray mold = assay: fungicidal activity in vitro (inhibition rate) against cucumber gray mold; format: cell-based; settings: 25 ppm, in vitro; read-out: inhibition rate against cucumber gray mold
cucumber downy mildew = assay: protectant activity in vivo against cucumber downy mildew; settings: Cucumis sativus, 168 h; for pest or weed control at 6.25 µg/mL: read-out: control effect against cucumber downy mildew (%), 6.25 mg/L; for pest or weed control at 12.5 µg/mL: read-out: control effect against cucumber downy mildew (%), 12.5 mg/L; for pest or weed control at 25 µg/mL: read-out: control effect against cucumber downy mildew (%), 25 mg/L; for pest or weed control at 50 µg/mL: read-out: control effect against cucumber downy mildew (%), 50 mg/L; for pest or weed control at 100 µg/mL: read-out: control effect against cucumber downy mildew (%), 100 mg/L; for pest or weed control at 400 µg/mL: read-out: control effect against cucumber downy mildew (%), 400 mg/L; for pest or weed control at 100 ppm: read-out: protectant activity against cucumber downy mildew in vivo, 100 ppm; for pest or weed control at 400 ppm: read-out: protectant activity against cucumber downy mildew in vivo, 400 ppm
wheat powdery mildew = assay: protectant activity in vivo against wheat powdery mildew; settings: Triticum aestivum, 168 h; for pest or weed control at 6.25 µg/mL: read-out: control effect against wheat powdery mildew (%), 6.25 mg/L; for pest or weed control at 25 µg/mL: read-out: control effect against wheat powdery mildew (%), 25 mg/L; for pest or weed control at 100 µg/mL: read-out: control effect against wheat powdery mildew (%), 100 mg/L; for pest or weed control at 400 µg/mL: read-out: control effect against wheat powdery mildew (%), 400 mg/L; for pest or weed control at 400 ppm: read-out: protectant activity against wheat powdery mildew in vivo, 400 ppm
rice blast = assay: microbe, parasite or virus in culture; format: cell-based; settings: Pyricularia oryzae; for inhibition at 25 ppm: read-out: inhibition rate against rice blast, 25 ppm, in vitro; for inhibition at 8.3 ppm: read-out: inhibition rate against rice blast, 8.3 ppm, in vitro
armyworm = assay: bioactivity test against armyworm, airbrush spray; format: in vivo; settings: 72 h; for pest or weed control at 600 µg/mL: 600 mg/L
corn rust = assay: protectant activity in vivo against corn rust; settings: Zea mays, 168 h; for pest or weed control at 6.25 µg/mL: read-out: control effect against corn rust (%), 6.25 mg/L; for pest or weed control at 6.25 µg/mL / pest or weed control at 25 µg/mL / pest or weed control at 100 µg/mL / pest or weed control at 400 µg/mL: protectant activity; for pest or weed control at 25 µg/mL: read-out: control effect against corn rust (%), 25 mg/L; for pest or weed control at 100 µg/mL: read-out: control effect against corn rust (%), 100 mg/L; for pest or weed control at 400 µg/mL: read-out: control effect against corn rust (%), 400 mg/L; for pest or weed control at 6.25 ppm: read-out: protectant activity against corn rust in vivo, 6.25 ppm; for pest or weed control at 25 ppm: read-out: protectant activity against corn rust in vivo, 25 ppm; for pest or weed control at 100 ppm: read-out: protectant activity against corn rust in vivo, 100 ppm; for pest or weed control at 400 ppm: read-out: protectant activity against corn rust in vivo, 400 ppm
Diamond back moth = assay: insecticidal activity against diamond back moth, airbrush spray; format: in vivo; settings: 72 h; for pest or weed control at 600 µg/mL: 600 mg/L
Outline: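 Airbrush leaf-disc spray test: both faces of 2 cm cabbage discs received 0.5 ml of test solution at 0.7 kg/cm^2. Solutions were made in acetone:methanol (1:1) and brought to concentration with 0.1% Tween 80 in water. Ten second-instar larvae per disc, triplicates, were held at 25° C and 60˜70% R.H., with mortality recorded at 72 hrs.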

[1] = test system: Green peach aphids (Myzus Persicae Sulzer); assay: bioactivity test against green peach aphid, airbrush foliar spray; format: in vivo; settings: Myzus persicae, foliar, 48 h; for pest or weed control at 10 µg/mL: 10 mg/L; for pest or weed control at 100 µg/mL: 100 mg/L; for pest or weed control at 600 µg/mL: 600 mg/L
Outline: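 Aphids (15-30 per cabbage leaf disc) on moist filter paper were airbrush-sprayed at 10 psi, 0.5 mL, with compound from acetone:methanol (1:1) diluted in water with 0.1% tween 80. Held at 25±1 C, 60±5% RH; survivors counted after 48 hrs to give death rates.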

carmine spider mite = assay: bioactivity test against carmine spider mite, airbrush spray; format: in vivo; settings: Tetranychus cinnabarinus, 72 h
Outline: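 Broadbean seedlings infested with adult mites were sprayed with compound (acetone/methanol stock diluted in 0.1% Tween 80 water) by airbrush at 0.7 kg/cm^2, 0.5 ml. Three replicates were run. Mortality was scored after 72 hrs.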

[2] = read-out: Insecticidal activity against armyworm (%)
[3] = contrastive test, read-out: Insecticidal activity against peach aphid (%)

Structure (SMILES)	inhibition at 25 ppm (cucumber gray mold)	pest or weed control at 6.25 µg/mL (wheat powdery mildew; protectant activity)	pest or weed control at 25 µg/mL (wheat powdery mildew; protectant activity)	pest or weed control at 100 µg/mL (wheat powdery mildew; protectant activity)	pest or weed control at 400 µg/mL (wheat powdery mildew; protectant activity)	inhibition at 25 ppm (rice blast)	pest or weed control at 600 µg/mL (armyworm; [2])	pest or weed control at 6.25 µg/mL (corn rust)	pest or weed control at 25 µg/mL (corn rust)	pest or weed control at 100 µg/mL (corn rust)	pest or weed control at 400 µg/mL (corn rust)	inhibition at 8.3 ppm (rice blast)	pest or weed control at 10 µg/mL [1, 3]	pest or weed control at 100 µg/mL [1, 3]	pest or weed control at 600 µg/mL [1, 3]	pest or weed control at 25 ppm (corn rust)	pest or weed control at 100 ppm (corn rust)	pest or weed control at 400 ppm (corn rust)	pest or weed control at 400 ppm (wheat powdery mildew)	pest or weed control at 600 ppm ([1]; death rate after 48 hrs)	other results
CC(F)c1ncnc(NCCc2ccc(Oc3ccc(C(F)(F)F)cc3)cc2)c1Cl (stereo not drawn) [CK1, reference compound]	0%	80%	100%	100%	100%	0%	–	–	–	–	–	–	–	–	–	–	–	–	–	–	pest or weed control at 3.125 µg/mL (cucumber downy mildew; read-out: control effect against cucumber downy mildew (%), 3.125 mg/L, protectant activity): 20%; pest or weed control at 6.25 µg/mL (cucumber downy mildew; protectant activity): 30%; pest or weed control at 12.5 µg/mL (cucumber downy mildew; protectant activity): 50%; pest or weed control at 25 µg/mL (cucumber downy mildew; protectant activity): 100%; pest or weed control at 50 µg/mL (cucumber downy mildew; protectant activity): 100%; pest or weed control at 100 µg/mL (cucumber downy mildew; protectant activity): 100%; pest or weed control at 400 µg/mL (cucumber downy mildew; protectant activity): 100%
CCc1ncnc(NC(C)c2ccc(Oc3ccc(C(F)(F)F)cc3)cc2)c1Cl (stereo not drawn) [CK47, reference compound]	0%	–	–	–	–	< 50%	86%	0%	0%	30%	80%	0%	–	–	–	–	–	–	–	–	pest or weed control at 10 µg/mL (armyworm; 10 mg/L, read-out: Insecticidal activity against armyworm (%)): 0%; pest or weed control at 100 µg/mL (armyworm; 100 mg/L, read-out: Insecticidal activity against armyworm (%)): 25%
CCc1ncnc(NCc2ccc(Oc3ccc(C(F)(F)F)cc3Cl)cc2)c1Cl [CK48, reference compound]	0%	0%	0%	0%	30%	< 50%	50%	0%	0%	20%	60%	0%	0%	87%	100%	–	–	–	–	–	pest or weed control at 600 µg/mL (Diamond back moth): 40%
Cc1ncnc(NCc2ccc(Oc3ccc(C(F)(F)F)cc3Cl)cc2)c1Cl [CK51, reference compound]	0%	0%	40%	80%	100%	–	43%	0%	0%	20%	80%	0%	0%	50%	100%	–	–	–	–	–	pest or weed control at 600 µg/mL (Diamond back moth): 57%
FC(F)c1ncnc(NCCc2ccc(Oc3ccc(C(F)(F)F)cn3)cc2)c1Cl [Compound I-2342]	100%	100%	100%	100%	100%	80 to 99%	–	–	–	–	–	–	–	–	–	100%	100%	100%	100%	100%	pest or weed control at 100 ppm (carmine spider mite; mortality after 72 hrs): 100%; pest or weed control at 600 ppm (carmine spider mite; mortality after 72 hrs): 100%; pest or weed control at 600 ppm (armyworm; mortality after 72 h): 100%; pest or weed control at 6.25 ppm (corn rust): 100%; pest or weed control at 0.4 µg/mL (wheat powdery mildew; read-out: control effect against wheat powdery mildew (%), 0.4 mg/L, protectant activity): 60%; pest or weed control at 1.6 µg/mL (wheat powdery mildew; read-out: control effect against wheat powdery mildew (%), 1.6 mg/L, protectant activity): 95%; pest or weed control at 6.25 ppm (wheat powdery mildew; read-out: protectant activity against wheat powdery mildew in vivo, 6.25 ppm): 100%; pest or weed control at 25 ppm (wheat powdery mildew; read-out: protectant activity against wheat powdery mildew in vivo, 25 ppm): 100%; pest or weed control at 100 ppm (wheat powdery mildew; read-out: protectant activity against wheat powdery mildew in vivo, 100 ppm): 100%; pest or weed control at 10 ppm ([1]; death rate after 48 hrs): 100%; pest or weed control at 100 ppm ([1]; death rate after 48 hrs): 100%
Cc1ncnc(NCCc2ccc(Oc3ccc(C(F)(F)F)cc3)cc2)c1Cl [II-69]	80 to 99%	–	–	–	–	80 to 99%	–	–	–	–	–	–	100%	100%	100%	100%	100%	100%	100%	100%	pest or weed control at 10 µg/mL (carmine spider mite; 10 mg/L, contrastive test, read-out: Insecticidal activity against carmine spider mite (% )): 90%; pest or weed control at 100 µg/mL (carmine spider mite; 100 mg/L, contrastive test, read-out: Insecticidal activity against carmine spider mite (% )): 100%; pest or weed control at 600 µg/mL (carmine spider mite; 600 mg/L, contrastive test, read-out: Insecticidal activity against carmine spider mite (% )): 100%; pest or weed control at 10 ppm (carmine spider mite; 10 ppm, mortality after 72 hrs): 80 to 99%; pest or weed control at 100 ppm (carmine spider mite; mortality after 72 hrs): 100%; pest or weed control at 600 ppm (carmine spider mite; mortality after 72 hrs): 100%; pest or weed control at 100 ppm (armyworm; 100 ppm, mortality after 72 h): 80 to 99%; pest or weed control at 600 ppm (armyworm; mortality after 72 h): 100%; pest or weed control at 100 ppm (cucumber downy mildew): 80 to 99%; pest or weed control at 400 ppm (cucumber downy mildew): 100%; pest or weed control at 2.5 µg/mL ([1]; 2.5 mg/L, contrastive test, read-out: Insecticidal activity against peach aphid (%)): 81%; pest or weed control at 5 µg/mL ([1]; 5 mg/L, contrastive test, read-out: Insecticidal activity against peach aphid (%)): 100%; pest or weed control at 2.5 ppm ([1]; 2.5 ppm, death rate after 48 hrs): 80 to 99%; pest or weed control at 5 ppm ([1]; 5 ppm, death rate after 48 hrs): 100%; pest or weed control at 10 ppm ([1]; death rate after 48 hrs): 100%; pest or weed control at 100 ppm ([1]; death rate after 48 hrs): 100%
FC(F)c1ncnc(NCCc2ccc(Oc3ccc(Cl)cc3Cl)nc2)c1Cl [III-622]	80 to 99%	–	–	–	–	80 to 99%	–	–	–	–	–	–	–	–	–	100%	100%	100%	100%	100%	pest or weed control at 600 ppm (Diamond back moth; 600 ppm, mortality after 72 hrs, read-out: control (test results against diamond back moth)): 100%; pest or weed control at 6.25 µg/mL (cucumber downy mildew; protectant activity): 98%; pest or weed control at 12.5 µg/mL (cucumber downy mildew; protectant activity): 100%; pest or weed control at 25 µg/mL (cucumber downy mildew; protectant activity): 100%; pest or weed control at 50 µg/mL (cucumber downy mildew; protectant activity): 100%; pest or weed control at 100 µg/mL (cucumber downy mildew; protectant activity): 100%; pest or weed control at 400 µg/mL (cucumber downy mildew; protectant activity): 100%; pest or weed control at 6.25 ppm (cucumber downy mildew; read-out: protectant activity against cucumber downy mildew in vivo, 6.25 ppm): 80 to 99%; pest or weed control at 12.5 ppm (cucumber downy mildew; read-out: protectant activity against cucumber downy mildew in vivo, 12.5 ppm): 100%; pest or weed control at 25 ppm (cucumber downy mildew; read-out: protectant activity against cucumber downy mildew in vivo, 25 ppm): 100%; pest or weed control at 50 ppm (cucumber downy mildew; read-out: protectant activity against cucumber downy mildew in vivo, 50 ppm): 100%; pest or weed control at 100 ppm (cucumber downy mildew): 100%; pest or weed control at 400 ppm (cucumber downy mildew): 100%; pest or weed control at 6.25 ppm (corn rust): 80 to 99%
